The values that follow come from US9187472B2 (AbbVie Inc., priority 2012, dated 2015).

One assay deals with NAMPT (Homo sapiens, UniProt P43490). In words: TR-FRET Binding Assay of NAMPT with PRPP. Particulars: with 200 μM PRPP and 2.5 mM ATP; 2 nM NAMPT, 2 nM probe, 16 hours equilibration. A digest of the protocol:
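TR-FRET probe-displacement binding with 2 nM NAMPT, 2 nM probe and 1 nM Tb-anti-His antibody, run in the presence of 200 μM PRPP and 2.5 mM ATP at 2% DMSO. Equilibrated 16 hours before reading so test compounds could undergo enzymatic modification.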
(In general: TR-FRET usually uses a lanthanide donor and a delayed reading to cut background.)

Another assay has as its system PC3 cells. Put plainly: NAMPT Cell Proliferation Assay. The class given is cell-based. The following applies: Homo sapiens, PC-3, 120 h, 5 days incubation, cell viability by Cell Titer Glo. A digest of the protocol:
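PC3 cells were plated at 500 cells/well in RPMI with 10% heat-inactivated FBS, left to attach overnight, then given compounds in 10-fold dilutions from 10 μM to 1×10^−5 μM. After 5 days at 37° C and 5% CO2, viability was read by luminescence and IC50s came from sigmoidal fits of percent inhibition.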
(In general: ATP-based viability assays read luminescence as a measure of living cells.)

In assay [1] the target is NAMPT (human, recombinant, C-terminally His-tagged) (Homo sapiens, UniProt P43490). Put plainly: Time-Resolved Fluorescence Resonance Energy Transfer (TR-FRET) Binding Assay of NAMPT. The following applies: without substrates; 6.8 nM NAMPT, 200 nM probe, 3 hours equilibration. In outline: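 11-pt half-log compound series; final 6.8 nM NAMPT, 200 nM OG488 nicotinamide-competitive probe, 1 nM Tb-anti-His Ab, 2% DMSO, HEPES pH 7.5/NaCl/MgCl2/DTT/glycerol buffer. 3 h RT equilibration. Em520/Em495 ratio (Ex 337 nm), control-normalized, 4-parameter fit → IC50.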
Chain of NAMPT (human, recombinant, C-terminally His-tagged) (P43490 whole entry): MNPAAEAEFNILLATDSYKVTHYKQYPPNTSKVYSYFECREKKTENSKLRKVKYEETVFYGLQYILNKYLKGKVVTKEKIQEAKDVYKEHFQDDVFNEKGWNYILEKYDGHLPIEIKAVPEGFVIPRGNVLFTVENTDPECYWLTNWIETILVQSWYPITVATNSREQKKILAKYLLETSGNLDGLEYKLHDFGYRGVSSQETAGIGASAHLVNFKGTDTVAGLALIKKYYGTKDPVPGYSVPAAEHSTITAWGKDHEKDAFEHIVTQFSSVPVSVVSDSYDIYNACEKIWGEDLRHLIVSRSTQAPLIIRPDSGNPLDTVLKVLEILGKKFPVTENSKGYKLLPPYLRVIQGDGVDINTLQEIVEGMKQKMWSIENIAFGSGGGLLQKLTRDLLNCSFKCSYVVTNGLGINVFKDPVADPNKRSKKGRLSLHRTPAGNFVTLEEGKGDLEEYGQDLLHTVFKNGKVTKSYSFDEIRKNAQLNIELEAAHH

Chain of NAMPT (P43490 whole entry): as above

The IC50 is the concentration that gives 50% inhibition. For the compound `O=C(CC(F)(F)F)NC1(c2ccc(C(=O)NCc3ccn4ccnc4c3)s2)CCC1` [Example 472, N-(imidazo[1,2-a]pyridin-7-ylmethyl)-5-{1-[(3,3,3-trifluoropropanoyl)amino]cyclobutyl}thiophene-2-carboxamide], the results for the IC50 (on NAMPT; with PC3 cells; in assay [1]) were 0.334 nM, 963 nM and 2860 nM, respectively.
For `O=C(NCc1ccn2ccnc2c1)c1ccc(C2CCN(C(=O)C(F)(F)c3ccccc3)C2)cc1` (stereo not drawn) [Example 733, 4-{1-[difluoro(phenyl)acetyl]pyrrolidin-3-yl}-N-(imidazo[1,2-a]pyridin-7-ylmethyl)benzamide], the IC50 was determined as 0.712 nM at NAMPT, 20.2 nM in the assay on PC3 cells and 119 nM in assay [1].
On the same counts, the results for `O=C(NCc1ccn2ccnc2c1)Nc1ccc(C2CCN(C(=O)CC3CCOCC3)C2)cc1` (stereo not drawn) [Example 391, 1-(imidazo[1,2-a]pyridin-7-ylmethyl)-3-{4-[1-(tetrahydro-2H-pyran-4-ylacetyl)pyrrolidin-3-yl]phenyl}urea] are 0.227 nM, 78.4 nM and 171 nM.
As for `O=C(NCc1ccn2ccnc2c1)c1ccc(C2CCN(C(=O)c3ccsc3)C2)cc1` (stereo not drawn) [Example 617, N-(imidazo[1,2-a]pyridin-7-ylmethyl)-4-[1-(thiophen-3-ylcarbonyl)pyrrolidin-3-yl]benzamide], the IC50 turned out to be 0.645 nM at NAMPT, 82.6 nM in the assay with PC3 cells and 164 nM in assay [1].
On the same counts, the results for `CC(C)CCNC(=O)c1ccc(NC(=O)Nc2ccn3ccnc3c2)cc1` [Example 2, 4-[(imidazo[1,2-a]pyridin-7-ylcarbamoyl)amino]-N-(3-methylbutyl)benzamide] are 39.8 nM, > 10000 nM and 854 nM.
For `CC(C)OCCNC(=O)N(C[C@@H]1CCCO1)c1ncc(C(=O)NCc2ccc3nccn3c2)s1` [Example 156, N-(imidazo[1,2-a]pyridin-6-ylmethyl)-2-({[2-(propan-2-yloxy)ethyl]carbamoyl}[(2S)-tetrahydrofuran-2-ylmethyl]amino)-1,3-thiazole-5-carboxamide], the IC50 on NAMPT was determined as 3.18 nM; in the assay with PC3 cells it was 28 nM; in assay [1], 3270 nM.
On the same counts, the results for `O=C(NCc1ccn2ccnc2c1)c1ccc(C2CN(C(=O)c3ccncc3)C2)cc1` [Example 658, N-(imidazo[1,2-a]pyridin-7-ylmethyl)-4-[1-(pyridin-4-ylcarbonyl)azetidin-3-yl]benzamide] are 0.76 nM, 60.8 nM and 137 nM.
As for `O=C(NCc1ccn2ccnc2c1)c1ccc(C2CCN(C(=O)[C@H]3CCCO3)C2)cc1` (stereo partly drawn) [Example 373, N-(imidazo[1,2-a]pyridin-7-ylmethyl)-4-{1-[(2R)-tetrahydrofuran-2-ylcarbonyl]pyrrolidin-3-yl}benzamide], the IC50 was 0.36 nM at NAMPT, 585 nM with PC3 cells and 3040 nM in assay [1].
For the compound `O=C(NCc1ccn2ccnc2c1)c1ccc(C2CCN(S(=O)(=O)C3CC3)C2)cc1` (stereo not drawn) [Example 626, 4-[1-(cyclopropylsulfonyl)pyrrolidin-3-yl]-N-(imidazo[1,2-a]pyridin-7-ylmethyl)benzamide], the IC50 at NAMPT turned out to be 0.793 nM; in the assay with PC3 cells it was 80.7 nM; in assay [1], 645 nM.
On the same counts, the results for `O=C(NCc1ccn2ccnc2c1)c1ccc(C2CN(C(=O)CC3CCOCC3)C2)cc1` [Example 551, N-(imidazo[1,2-a]pyridin-7-ylmethyl)-4-[1-(tetrahydro-2H-pyran-4-ylacetyl)azetidin-3-yl]benzamide] are 0.392 nM, 55.1 nM and 713 nM.
On the same counts, the results for `CC(C)CCC(=O)Nc1ccc(NC(=O)Nc2ccc3nccn3c2)cc1` [Example 47, N-{4-[(imidazo[1,2-a]pyridin-6-ylcarbamoyl)amino]phenyl}-4-methylpentanamide] are 0.62 nM, 64.8 nM and 57.5 nM.
Regarding `O=C(Nc1ccc(C(=O)NCCCN2CCCC2=O)cc1)Nc1ccc2nccn2c1` [Example 21, 4-[(imidazo[1,2-a]pyridin-6-ylcarbamoyl)amino]-N-[3-(2-oxopyrrolidin-1-yl)propyl]benzamide], the IC50 worked out at 0.887 nM on NAMPT, 899 nM with PC3 cells and 433 nM in assay [1].
On the same counts, the results for `O=C(NCCCCC1CCN(C(=O)CCC(F)(F)F)CC1)Nc1ccc2nccn2c1` [Example 65, 1-imidazo[1,2-a]pyridin-6-yl-3-{4-[1-(4,4,4-trifluorobutanoyl)piperidin-4-yl]butyl}urea] are 0.685 nM, 65.6 nM and 773 nM.
For `CC(C)(C)OC(=O)N1CCC(Oc2ccc(NC(=O)NCc3ccn4ccnc4c3)cc2)CC1` [Example 366, tert-butyl 4-(4-{[(imidazo[1,2-a]pyridin-7-ylmethyl)carbamoyl]amino}phenoxy)piperidine-1-carboxylate], the IC50 on NAMPT came to 0.435 nM; in the assay with PC3 cells, 21.5 nM; in assay [1], 146 nM.
Take `O=C(Nc1ccc(NC(=O)C2CCOCC2)cc1)Nc1ccc2nccn2c1` [Example 46]: the IC50 at NAMPT was determined as 0.318 nM; in the assay with PC3 cells it was 6280 nM; in assay [1] it was 773 nM.
On the same counts, the results for `O=C(NCc1ccn2ccnc2c1)c1ccc(C2(O)CCN(C(=O)c3ccccc3)CC2)s1` [Example 556, 5-(1-benzoyl-4-hydroxypiperidin-4-yl)-N-(imidazo[1,2-a]pyridin-7-ylmethyl)thiophene-2-carboxamide] are 0.407 nM, 6.55 nM and 5.43 nM.
The corresponding values for `O=C(NCc1ccn2ccnc2c1)c1ccc(-c2cnn(C[C@H]3CCCO3)c2)o1` [Example 743, N-(imidazo[1,2-a]pyridin-7-ylmethyl)-5-{1-[(2R)-tetrahydrofuran-2-ylmethyl]-1H-pyrazol-4-yl}furan-2-carboxamide] are 0.691 nM, 6.81 nM and 63.3 nM.
The corresponding values for `CC[C@H](C)C(=O)N1CCC(c2ccc(NC(=O)NCc3ccn4ccnc4c3)cc2)CC1` [Example 710, 1-(imidazo[1,2-a]pyridin-7-ylmethyl)-3-(4-{1-[(2S)-2-methylbutanoyl]piperidin-4-yl}phenyl)urea] are 1.25 nM, 2.76 nM and 49.1 nM.
For `O=C(NCc1ccc2nccn2c1)c1ccc(C2=CCN(C(=O)CC3CCOCC3)CC2)cc1` [Example 93, N-(imidazo[1,2-a]pyridin-6-ylmethyl)-4-[1-(tetrahydro-2H-pyran-4-ylacetyl)-1,2,3,6-tetrahydropyridin-4-yl]benzamide], the figures for the IC50 (at NAMPT; in the assay on PC3 cells; in assay [1]) were 1.39 nM, 7.13 nM and 389 nM, respectively.
Regarding `O=C(NCc1ccn2ccnc2c1)Nc1ccc(OC2CCN(C(=O)CC3CCOCC3)CC2)cc1` [Example 451, 1-(imidazo[1,2-a]pyridin-7-ylmethyl)-3-(4-{[1-(tetrahydro-2H-pyran-4-ylacetyl)piperidin-4-yl]oxy}phenyl)urea], the IC50 at NAMPT is 0.373 nM; in the assay with PC3 cells, 17.3 nM; in assay [1], 400 nM.
For the compound `O=C(NCc1ccn2ccnc2c1)Nc1ccc(C2CN(C(=O)[C@H]3CCCO3)C2)cc1` [Example 458, 1-(imidazo[1,2-a]pyridin-7-ylmethyl)-3-(4-{1-[(2R)-tetrahydrofuran-2-ylcarbonyl]azetidin-3-yl}phenyl)urea], the IC50 at NAMPT came out at 0.382 nM; with PC3 cells, 183 nM; in assay [1], 940 nM.
The corresponding values for `CC(C)CS(=O)(=O)N1CCC(c2ccc(C(=O)NCc3ccn4ccnc4c3)s2)CC1` [Example 573, N-(imidazo[1,2-a]pyridin-7-ylmethyl)-5-{1-[(2-methylpropyl)sulfonyl]piperidin-4-yl}thiophene-2-carboxamide] are 0.403 nM, 3.72 nM and 24.2 nM.
The corresponding values for `O=C(NCc1ccc2nccn2c1)c1ccc(OC2CCN(C(=O)C3CC3)CC2)cc1` [Example 161, 4-{[1-(cyclopropylcarbonyl)piperidin-4-yl]oxy}-N-(imidazo[1,2-a]pyridin-6-ylmethyl)benzamide] are 2.89 nM, 635 nM and 1310 nM.
Take `O=C(NCc1ccn2ccnc2c1)Nc1ccc(OC2CN(C(=O)[C@H]3CCCO3)C2)cc1` [Example 431, 1-(imidazo[1,2-a]pyridin-7-ylmethyl)-3-[4-({1-[(2R)-tetrahydrofuran-2-ylcarbonyl]azetidin-3-yl}oxy)phenyl]urea]: the IC50 is 0.276 nM on NAMPT, 71.9 nM with PC3 cells and 301 nM in assay [1].
The corresponding values for `O=C(NCc1ccc2nccn2c1)c1ccc(C(=O)NC[C@@H]2CCOC2)cc1` [Example 359, N-(imidazo[1,2-a]pyridin-6-ylmethyl)-N′-[(3S)-tetrahydrofuran-3-ylmethyl]benzene-1,4-dicarboxamide] are 2.5 nM, 8770 nM and > 10000 nM.
